From article PMC3270411 (Chemistry & biology, 2012)

Key:
Test in all cases: KiNativ cellular kinase profiling
Format in all cases: cell-based
GSK3A = GSK3A (Homo sapiens, UniProt P49840); conditions: for Percent inhibition of kinase labeling by ATP-biotin: A375 cells, 1 μM, 3 hours, GSK3A, labeling site Lys2; for inhibition at 1 µM: A-375, read-out: Percent inhibition of kinase labeling by ATP-biotin
PKD1 = target: T1, PKD1 (Homo sapiens, UniProt Q15139); conditions: for Percent inhibition of kinase labeling by ATP-biotin: A375 cells, 1 μM, 3 hours, PKD1, labeling site Lys1; for inhibition at 1 µM: A-375, read-out: Percent inhibition of kinase labeling by ATP-biotin
T1 sequence (Q15139 1-912): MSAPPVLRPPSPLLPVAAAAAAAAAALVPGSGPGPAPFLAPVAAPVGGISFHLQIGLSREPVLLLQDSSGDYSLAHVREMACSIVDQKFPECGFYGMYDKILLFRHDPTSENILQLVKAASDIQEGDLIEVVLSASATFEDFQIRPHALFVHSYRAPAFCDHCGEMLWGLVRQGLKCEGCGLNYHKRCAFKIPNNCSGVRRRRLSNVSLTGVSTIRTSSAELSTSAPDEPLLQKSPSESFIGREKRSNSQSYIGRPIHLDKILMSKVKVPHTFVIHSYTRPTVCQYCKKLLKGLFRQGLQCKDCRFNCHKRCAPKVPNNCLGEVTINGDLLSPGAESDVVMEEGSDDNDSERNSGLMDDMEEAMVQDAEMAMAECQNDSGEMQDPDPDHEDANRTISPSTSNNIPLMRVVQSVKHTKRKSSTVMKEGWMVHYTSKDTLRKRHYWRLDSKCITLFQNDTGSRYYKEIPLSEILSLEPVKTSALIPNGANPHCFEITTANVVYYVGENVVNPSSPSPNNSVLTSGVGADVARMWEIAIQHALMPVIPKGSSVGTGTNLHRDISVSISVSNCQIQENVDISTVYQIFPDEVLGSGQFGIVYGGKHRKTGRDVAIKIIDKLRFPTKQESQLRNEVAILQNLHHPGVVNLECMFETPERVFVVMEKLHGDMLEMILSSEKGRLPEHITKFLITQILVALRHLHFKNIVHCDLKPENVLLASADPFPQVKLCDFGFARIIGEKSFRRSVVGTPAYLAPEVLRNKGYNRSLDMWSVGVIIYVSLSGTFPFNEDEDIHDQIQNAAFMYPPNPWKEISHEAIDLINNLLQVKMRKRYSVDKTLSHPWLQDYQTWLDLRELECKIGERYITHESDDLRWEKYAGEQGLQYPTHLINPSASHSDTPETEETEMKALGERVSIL

MARK2,MARK3 = conditions: A375 cells, 1 μM, 3 hours; MARK2,MARK3, labeling site Lys2
CK1a = CK1a (Homo sapiens, UniProt P48729); conditions: for Percent inhibition of kinase labeling by ATP-biotin: A375 cells, 1 μM, 3 hours, CK1a, labeling site Lys2; for inhibition at 1 µM: A-375, read-out: Percent inhibition of kinase labeling by ATP-biotin
Sequence of CK1a (P48729 whole entry): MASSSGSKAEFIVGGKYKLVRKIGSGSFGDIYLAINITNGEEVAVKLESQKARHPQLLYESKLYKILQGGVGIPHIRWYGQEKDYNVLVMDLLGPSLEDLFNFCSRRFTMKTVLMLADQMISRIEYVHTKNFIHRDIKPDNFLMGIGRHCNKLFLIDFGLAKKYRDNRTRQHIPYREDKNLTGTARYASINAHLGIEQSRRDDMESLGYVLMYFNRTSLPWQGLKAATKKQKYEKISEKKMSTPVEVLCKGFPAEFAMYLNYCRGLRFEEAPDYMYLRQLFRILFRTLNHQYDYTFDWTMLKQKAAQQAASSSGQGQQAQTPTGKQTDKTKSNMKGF

AurA = target: T2, AurA (Homo sapiens, UniProt O14965); conditions: for Percent inhibition of kinase labeling by ATP-biotin: A375 cells, 1 μM, 3 hours, AurA, labeling site Lys2; for inhibition at 1 µM: A-375, read-out: Percent inhibition of kinase labeling by ATP-biotin
T2 sequence (O14965 1-403): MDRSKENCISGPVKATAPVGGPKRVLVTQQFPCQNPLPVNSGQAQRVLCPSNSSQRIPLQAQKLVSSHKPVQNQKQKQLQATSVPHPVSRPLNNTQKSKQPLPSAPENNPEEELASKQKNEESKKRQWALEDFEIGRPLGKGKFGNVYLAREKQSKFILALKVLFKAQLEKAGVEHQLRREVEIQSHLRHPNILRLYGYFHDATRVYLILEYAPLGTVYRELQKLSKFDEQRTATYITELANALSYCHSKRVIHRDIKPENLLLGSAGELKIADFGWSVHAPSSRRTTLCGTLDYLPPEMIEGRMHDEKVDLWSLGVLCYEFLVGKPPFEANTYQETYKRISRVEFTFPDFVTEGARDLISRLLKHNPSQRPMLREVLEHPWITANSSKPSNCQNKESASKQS

AurA,AurB,AurC = conditions: A375 cells, 1 μM, 3 hours, labeling site ATP Loop
IKKa = target: T3, IKKa (Homo sapiens, UniProt O15111); conditions: for Percent inhibition of kinase labeling by ATP-biotin: A375 cells, 1 μM, 3 hours, IKKa, labeling site Lys2; for inhibition at 1 µM: A-375, read-out: Percent inhibition of kinase labeling by ATP-biotin
T3 sequence (O15111 1-745): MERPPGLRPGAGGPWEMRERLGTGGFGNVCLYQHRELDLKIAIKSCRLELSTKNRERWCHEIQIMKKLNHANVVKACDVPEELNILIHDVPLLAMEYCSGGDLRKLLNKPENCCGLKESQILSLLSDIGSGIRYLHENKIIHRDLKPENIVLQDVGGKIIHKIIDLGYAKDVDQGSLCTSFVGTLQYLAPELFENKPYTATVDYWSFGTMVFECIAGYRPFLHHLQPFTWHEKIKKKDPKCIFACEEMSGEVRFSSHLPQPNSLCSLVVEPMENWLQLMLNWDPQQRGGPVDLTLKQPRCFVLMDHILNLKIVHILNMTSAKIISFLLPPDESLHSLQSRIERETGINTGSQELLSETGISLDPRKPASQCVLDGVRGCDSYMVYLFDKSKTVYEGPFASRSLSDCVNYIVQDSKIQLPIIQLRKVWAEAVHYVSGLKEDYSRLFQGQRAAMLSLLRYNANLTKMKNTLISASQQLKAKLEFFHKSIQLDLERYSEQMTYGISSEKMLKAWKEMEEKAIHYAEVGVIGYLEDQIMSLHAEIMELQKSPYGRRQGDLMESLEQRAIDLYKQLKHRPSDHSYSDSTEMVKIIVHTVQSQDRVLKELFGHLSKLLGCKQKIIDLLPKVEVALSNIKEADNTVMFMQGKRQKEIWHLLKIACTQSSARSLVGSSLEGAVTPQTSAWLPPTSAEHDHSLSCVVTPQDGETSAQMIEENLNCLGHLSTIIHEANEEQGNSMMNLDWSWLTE

ABL,ARG = conditions: A375 cells, 1 μM, 3 hours, labeling site Lys1

Sequence of GSK3A (P49840 whole entry): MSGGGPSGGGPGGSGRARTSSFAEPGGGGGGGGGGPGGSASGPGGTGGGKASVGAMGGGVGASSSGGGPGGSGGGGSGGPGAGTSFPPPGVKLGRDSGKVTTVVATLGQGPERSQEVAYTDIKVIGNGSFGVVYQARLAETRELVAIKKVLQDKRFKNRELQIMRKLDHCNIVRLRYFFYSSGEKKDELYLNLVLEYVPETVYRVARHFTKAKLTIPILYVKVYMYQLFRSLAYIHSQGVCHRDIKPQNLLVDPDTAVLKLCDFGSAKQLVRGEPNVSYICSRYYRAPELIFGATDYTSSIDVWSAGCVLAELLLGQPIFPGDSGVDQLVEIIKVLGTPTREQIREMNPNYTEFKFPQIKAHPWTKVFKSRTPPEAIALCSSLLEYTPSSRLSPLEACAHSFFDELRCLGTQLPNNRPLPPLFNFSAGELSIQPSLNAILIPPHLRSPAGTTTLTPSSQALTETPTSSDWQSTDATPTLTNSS

inhibition at 1 µM (GSK3A) [%]	inhibition at 1 µM (PKD1) [%]	inhibition at 1 µM (CK1a) [%]	inhibition at 1 µM (AurA) [%]	inhibition at 1 µM (IKKa) [%]	SMILES	Percent inhibition of kinase labeling by ATP-biotin (GSK3A) [%]	Percent inhibition of kinase labeling by ATP-biotin (PKD1) [%]	Percent inhibition of kinase labeling by ATP-biotin (MARK2,MARK3) [%]	Percent inhibition of kinase labeling by ATP-biotin (CK1a) [%]	Percent inhibition of kinase labeling by ATP-biotin (AurA) [%]	Percent inhibition of kinase labeling by ATP-biotin (AurA,AurB,AurC) [%]	Percent inhibition of kinase labeling by ATP-biotin (IKKa) [%]	Percent inhibition of kinase labeling by ATP-biotin (ABL,ARG) [%]
					CCC(=O)Nc1cccc(C(=O)Nc2ccc(Nc3nccc(-c4cccnc4)n3)cc2)c1 [JNK-IN-6]	6.8	28.7	22.9	19.5	9.9	4.9	27.3	−1.4
10.6	8.6	-13.6	-8	4.9	Cc1cc(NC(=O)c2cccc(NC(=O)/C=C/CN(C)C)c2)ccc1Nc1nccc(-c2cccnc2)n1 [JNK-IN-8]			13.9			−11.3		−2.7
40.7	29.4	61.1	68.2	-7.3	CN(C)C/C=C/C(=O)Nc1cccc(C(=O)Nc2ccc(Nc3nccc(-c4c(-c5ccccc5)nn5ccccc45)n3)cc2)c1 [JNK-IN-11]			0.4			53.8		56.1
					CN(C)C/C=C/C(=O)Nc1cccc(C(=O)Nc2ccc(Nc3nccc(/C(C#N)=C4\Nc5ccccc5S4)n3)cc2)c1 [JNK-IN-12]	−7.7	−21.6	−38.7	−96	−23	−20.9	−79.2	7.9

SMILES	inhibition at 1 µM (GSK3A) [%]	inhibition at 1 µM (PKD1) [%]	inhibition at 1 µM (CK1a) [%]	inhibition at 1 µM (AurA) [%]	inhibition at 1 µM (IKKa) [%]	Percent inhibition of kinase labeling by ATP-biotin (GSK3A) [%]	Percent inhibition of kinase labeling by ATP-biotin (PKD1) [%]	Percent inhibition of kinase labeling by ATP-biotin (MARK2,MARK3) [%]	Percent inhibition of kinase labeling by ATP-biotin (CK1a) [%]	Percent inhibition of kinase labeling by ATP-biotin (AurA) [%]	Percent inhibition of kinase labeling by ATP-biotin (AurA,AurB,AurC) [%]	Percent inhibition of kinase labeling by ATP-biotin (IKKa) [%]	Percent inhibition of kinase labeling by ATP-biotin (ABL,ARG) [%]
CN(C)C/C=C/C(=O)Nc1cccc(C(=O)Nc2ccc(Nc3nccc(-c4cccnc4)n3)cc2)c1 [JNK-IN-7]	20.4	2	-20.2	20.9	-9.2			26.5			19.1		1.9
